Laboratory results taken from patent EP4818168A1, “FUSED RING COMPOUND, PHARMACEUTICAL COMPOSITION THEREOF AND USE THEREOF” (priority 2023, dated 2025).
Read-outs that look alike come from different tables or passages of the source.

Tests used:
H82 cells = experiment: cells; format: cell-based; details: Homo sapiens
How it was run: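 H82 cells in RPMI1640 + 10% FBS exposed to compound (0.1% DMSO final) for 6 days at 37 °C, 5% CO2. Viability read by CellTiter-Glo ATP luminescence, normalised to DMSO and medium controls; IC50 from nonlinear regression of the dose–survival curve.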

AURKA = molecular target: T1, AURKA (Homo sapiens, UniProt O14965); format: cell-based
T1 construct: endogenous in cells; host or cells: Jurkat cells
T1 sequence (O14965 1-403): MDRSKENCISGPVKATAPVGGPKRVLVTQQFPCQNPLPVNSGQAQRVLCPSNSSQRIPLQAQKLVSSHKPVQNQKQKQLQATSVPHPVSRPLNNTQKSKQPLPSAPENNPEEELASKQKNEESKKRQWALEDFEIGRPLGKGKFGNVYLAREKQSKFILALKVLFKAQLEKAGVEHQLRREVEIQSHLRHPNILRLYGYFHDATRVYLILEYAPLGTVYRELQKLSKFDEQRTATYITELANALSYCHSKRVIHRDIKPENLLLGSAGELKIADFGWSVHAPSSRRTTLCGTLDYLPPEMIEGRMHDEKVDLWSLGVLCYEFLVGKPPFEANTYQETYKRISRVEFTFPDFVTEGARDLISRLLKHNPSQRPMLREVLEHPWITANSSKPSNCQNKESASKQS
How it was run: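 Jurkat cells seeded at 1×10^6 cells/500 µL and treated with compound; lysates run on SDS-PAGE, blotted to nitrocellulose and probed overnight at 4°C for AURKA. Chemiluminescent or fluorescent band intensity fitted to a curve to give DC50 for protein degradation.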

[1] = NCI-H82, H82 cells, 4000 cells/well, CellTiter-Glo, read-out: IC50 in H82 Cells
[2] = 100 nM compound, Jurkat cells, 24 h, Table 2
[3] = 1 µM compound, Jurkat cells, 24 h, Table 2
[4] = NCI-H82, read-out: IC50 in H82 Cells

SMILES | IC50 (H82 cells; [1]) | Percentage of AURKA Degradation Induced by 100 nM Compound in Jurkat Cells (AURKA; [2]) | Percentage of AURKA Degradation Induced by 1 µM Compound in Jurkat Cells (AURKA; [3]) | IC50 (H82 cells; [4]) | Percentage of AURKA Degradation Induced by 100 nM Compound in Jurkat Cells (AURKA) | Percentage of AURKA Degradation Induced by 1 µM Compound in Jurkat Cells (AURKA)
O=C1CCN(c2cccc(N3CCN(CCc4cccc(Nc5ncc6c(n5)-c5ccc(Cl)cc5C(c5c(F)cccc5F)=NC6)c4)CC3)c2)C(=O)N1 [Compound A147] | < 1000 nM | +++ (Degradation > 70%) | +++ (Degradation > 70%) |  |  | 
O=C1CCN(c2cccc(N3CCN(CCOc4cccc(Nc5ncc6c(n5)-c5ccc(C7CC7)cc5C(c5c(F)cccc5F)=NC6)c4)CC3)c2)C(=O)N1 [Compound A148] | < 1000 nM | +++ (Degradation > 70%) | +++ (Degradation > 70%) |  |  | 
Cn1c(CN2CCN(c3ncc(N4CCC(=O)NC4=O)s3)CC2)cnc1-c1ccc(Nc2ncc3c(n2)-c2ccc(Cl)cc2C(c2c(F)cccc2F)=NC3)cc1 [Compound A149] | < 1000 nM | +++ (Degradation > 70%) | +++ (Degradation > 70%) |  |  | 
O=C1CCN(c2cccc(N3CCC(N4CC(c5cccc(Nc6ncc7c(n6)-c6ccc(Cl)cc6C(c6c(F)cccc6F)=NC7)c5)C4)CC3)c2)C(=O)N1 [Compound A151] | < 1000 nM | ++ (30% < Degradation ≤ 70%) | + (Degradation ≤ 30%) |  |  | 
Cc1c(N2CCN(CCc3cccc(Nc4ncc5c(n4)-c4ccc(Cl)cc4C(c4c(F)cccc4F)=NC5)c3)CC2)cccc1N1CCC(=O)NC1=O [Compound A155] | < 1000 nM | ++ (30% < Degradation ≤ 70%) | ++ (30% < Degradation ≤ 70%) |  |  | 
Cc1c(N2CC(C#Cc3cccc(Nc4ncc5c(n4)-c4ccc(Cl)cc4C(c4c(F)cccc4F)=NC5)c3)C2)cccc1N1CCC(=O)NC1=O [Compound A156] |  |  |  | 1000 to 10000 nM | + (key: +: Degradation ≤ 30%; ++: 30% < Degradation ≤ 70%; +++: Degradation > 70%) | + (key: +: Degradation ≤ 30%; ++: 30% < Degradation ≤ 70%; +++: Degradation > 70%)
O=C1CCN(c2cnc(N3CCN(CCN4Cc5cc(Nc6ncc7c(n6)-c6ccc(Cl)cc6C(c6c(F)cccc6F)=NC7)ccc5C4=O)CC3)s2)C(=O)N1 [Compound A157] | < 1000 nM | ++ (30% < Degradation ≤ 70%) | + (Degradation ≤ 30%) |  |  | 
O=C1CCN(c2ccc(N3CCN(CCN4Cc5cc(Nc6ncc7c(n6)-c6ccc(Cl)cc6C(c6c(F)cccc6F)=NC7)ccc5C4=O)CC3)cc2)C(=O)N1 [Compound A158] | < 1000 nM | ++ (30% < Degradation ≤ 70%) | + (Degradation ≤ 30%) |  |  | 
O=C1CCN(c2cccc(N3CCN(C4CN(c5cccc(Nc6ncc7c(n6)-c6ccc(Cl)cc6C(c6c(F)cccc6F)=NC7)c5)C4)CC3)c2)C(=O)N1 [Compound A164] | < 1000 nM | ++ (30% < Degradation ≤ 70%) | +++ (Degradation > 70%) |  |  | 
O=C1CCN(c2ccc(N3CCC(N4CCN(c5ccc(Nc6ncc7c(n6)-c6ccc(Cl)cc6C(c6c(F)cccc6F)=NC7)cc5)C(=O)C4)C3)nc2)C(=O)N1 (stereo not drawn) [Compound A166] | < 1000 nM | +++ (Degradation > 70%) | ++ (30% < Degradation ≤ 70%) |  |  | 
O=C1CCN(c2ccc(N3CCC4(CC3)CC(NC(=O)c3ccc(Nc5ncc6c(n5)-c5ccc(OC7CC7)cc5C(c5c(F)cccc5F)=NC6)cc3)C4)nc2)C(=O)N1 [Compound A168] | < 1000 nM | +++ (Degradation > 70%) | +++ (Degradation > 70%) |  |  | 
O=C1CCN(c2cccc(N3CCC(N4CC(c5cccc(Nc6ncc7c(n6)-c6ccc(Cl)cc6C(c6c(F)cccc6F)=NC7)c5)C4)C3)c2)C(=O)N1 (stereo not drawn) [Compound A170] | < 1000 nM | +++ (Degradation > 70%) | +++ (Degradation > 70%) |  |  | 
CN(C)Cc1ccc2c(c1)C(c1c(F)cccc1F)=NCc1cnc(Nc3ccc(C(=O)NC4CC5(CCN(c6ccc(N7CCC(=O)NC7=O)cn6)CC5)C4)cc3)nc1-2 [Compound A172] | < 1000 nM | ++ (30% < Degradation ≤ 70%) | +++ (Degradation > 70%) |  |  | 
O=C1CCN(c2cnc(N3CCN(CCN4Cc5ccc(Nc6ncc7c(n6)-c6ccc(Cl)cc6C(c6c(F)cccc6F)=NC7)cc5C4)CC3)s2)C(=O)N1 [Compound A174] | < 1000 nM | ++ (30% < Degradation ≤ 70%) | ++ (30% < Degradation ≤ 70%) |  |  | 
Cc1c(N2CC(CN3CCc4ccc(Nc5ncc6c(n5)-c5ccc(Cl)cc5C(c5c(F)cccc5F)=NC6)cc4C3)C2)cccc1N1CCC(=O)NC1=O [Compound A176] | < 1000 nM | +++ (Degradation > 70%) | +++ (Degradation > 70%) |  |  | 
Cc1c(N2CCC(CN3CCc4ccc(Nc5ncc6c(n5)-c5ccc(Cl)cc5C(c5c(F)cccc5F)=NC6)cc4C3)CC2)cccc1N1CCC(=O)NC1=O [Compound A178] | < 1000 nM | +++ (Degradation > 70%) | +++ (Degradation > 70%) |  |  | 
Cc1c(N2CCC(N3Cc4ccc(Nc5ncc6c(n5)-c5ccc(Cl)cc5C(c5c(F)cccc5F)=NC6)cc4C3)CC2)cccc1N1CCC(=O)NC1=O [Compound A179] | < 1000 nM | ++ (30% < Degradation ≤ 70%) | ++ (30% < Degradation ≤ 70%) |  |  | 
Cc1c(N2CCC(CN3Cc4ccc(Nc5ncc6c(n5)-c5ccc(Cl)cc5C(c5c(F)cccc5F)=NC6)cc4C3)CC2)cccc1N1CCC(=O)NC1=O [Compound A181] | < 1000 nM | +++ (Degradation > 70%) | +++ (Degradation > 70%) |  |  | 
O=C1CCN(c2cncc(N3CCN(C4CN(c5cccc(Nc6ncc7c(n6)-c6ccc(Cl)cc6C(c6c(F)cccc6F)=NC7)c5)C4)CC3)c2)C(=O)N1 [Compound A183] | < 1000 nM | +++ (Degradation > 70%) | +++ (Degradation > 70%) |  |  | 
O=C1CCN(c2ccc(N3CCN(C4CCN(c5ccc(Nc6ncc7c(n6)-c6ccc(Cl)cc6C(c6c(F)cccc6F)=NC7)cc5)CC4)CC3)nc2)C(=O)N1 [Compound A185] |  |  |  | < 1000 nM | +++ (key: +: Degradation ≤ 30%; ++: 30% < Degradation ≤ 70%; +++: Degradation > 70%) | +++ (key: +: Degradation ≤ 30%; ++: 30% < Degradation ≤ 70%; +++: Degradation > 70%)
O=C1CCN(c2ccc(N3CCC4(CC3)CC(NC(=O)C35CC(Nc6ncc7c(n6)-c6ccc(Cl)cc6C(c6c(F)cccc6F)=NC7)(C3)C5)C4)nc2)C(=O)N1 [Compound A195] | < 1000 nM | +++ (Degradation > 70%) | +++ (Degradation > 70%) |  |  | 
O=C1CCN(c2cncc(N3CCN(CC4CN(c5cccc(Nc6ncc7c(n6)-c6ccc(Cl)cc6C(c6c(F)cccc6F)=NC7)c5)C4)CC3)c2)C(=O)N1 [Compound A197] | < 1000 nM | +++ (Degradation > 70%) | +++ (Degradation > 70%) |  |  | 
O=C1CCN(c2ccc(N3CCN(CC4CN(c5ccc(Nc6ncc7c(n6)-c6ccc(Cl)cc6C(c6c(F)cccc6F)=NC7)cc5)C4)CC3)nc2)C(=O)N1 [Compound A199] | < 1000 nM | +++ (Degradation > 70%) | +++ (Degradation > 70%) |  |  | 
